From the kinase profiling compilation of Christmann-Franck et al. (2016) come the findings set out here.

For orientation: inhibition means the relative decrease from the control value, in per cent.

The target in one assay is PKN1 (human) (UniProt Q16512). As to the kind of experiment: IMAP-FP.
A further assay has as its target LCK (human) (UniProt P06239). In words: Caliper, Mobility shift assay off-chip.
The target in a further assay is EGFR (human) (UniProt P00533). In words: Caliper, Mobility shift assay off-chip.
Chain of EGFR (human) (P00533 whole entry, looked up): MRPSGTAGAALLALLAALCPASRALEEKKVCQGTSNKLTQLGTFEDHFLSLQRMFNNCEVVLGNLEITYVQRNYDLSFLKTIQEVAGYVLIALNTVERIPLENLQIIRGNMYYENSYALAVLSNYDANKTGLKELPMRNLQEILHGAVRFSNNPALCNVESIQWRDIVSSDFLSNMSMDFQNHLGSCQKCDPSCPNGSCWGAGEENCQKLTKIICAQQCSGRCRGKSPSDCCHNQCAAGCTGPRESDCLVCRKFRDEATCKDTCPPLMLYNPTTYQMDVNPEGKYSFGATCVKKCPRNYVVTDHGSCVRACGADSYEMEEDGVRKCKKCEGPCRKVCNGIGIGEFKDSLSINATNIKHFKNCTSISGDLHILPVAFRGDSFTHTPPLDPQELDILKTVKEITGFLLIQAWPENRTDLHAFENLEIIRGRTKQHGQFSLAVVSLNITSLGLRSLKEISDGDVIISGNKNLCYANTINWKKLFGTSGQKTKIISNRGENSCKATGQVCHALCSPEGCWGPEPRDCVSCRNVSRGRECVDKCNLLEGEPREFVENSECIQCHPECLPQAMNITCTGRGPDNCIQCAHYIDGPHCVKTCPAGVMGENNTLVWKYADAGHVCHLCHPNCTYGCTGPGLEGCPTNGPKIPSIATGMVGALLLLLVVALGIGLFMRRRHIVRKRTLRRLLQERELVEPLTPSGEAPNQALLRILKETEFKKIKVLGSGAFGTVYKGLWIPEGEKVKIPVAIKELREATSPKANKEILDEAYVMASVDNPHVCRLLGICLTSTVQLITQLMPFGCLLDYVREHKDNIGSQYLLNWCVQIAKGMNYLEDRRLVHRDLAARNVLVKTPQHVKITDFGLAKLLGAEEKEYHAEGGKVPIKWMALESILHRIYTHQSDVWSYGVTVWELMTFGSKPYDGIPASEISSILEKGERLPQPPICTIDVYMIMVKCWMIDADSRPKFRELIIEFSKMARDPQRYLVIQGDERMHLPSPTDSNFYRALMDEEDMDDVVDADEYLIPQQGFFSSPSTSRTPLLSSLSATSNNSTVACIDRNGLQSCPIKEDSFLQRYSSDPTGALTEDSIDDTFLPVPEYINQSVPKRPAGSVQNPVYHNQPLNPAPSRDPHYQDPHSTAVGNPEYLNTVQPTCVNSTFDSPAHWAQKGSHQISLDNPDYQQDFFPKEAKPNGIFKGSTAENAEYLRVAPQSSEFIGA
Another assay has as its target ABL1 (human) (UniProt P00519). As to the kind of experiment: Caliper, Mobility shift assay off-chip.

Chain of PKN1 (human) (Q16512 whole entry, looked up): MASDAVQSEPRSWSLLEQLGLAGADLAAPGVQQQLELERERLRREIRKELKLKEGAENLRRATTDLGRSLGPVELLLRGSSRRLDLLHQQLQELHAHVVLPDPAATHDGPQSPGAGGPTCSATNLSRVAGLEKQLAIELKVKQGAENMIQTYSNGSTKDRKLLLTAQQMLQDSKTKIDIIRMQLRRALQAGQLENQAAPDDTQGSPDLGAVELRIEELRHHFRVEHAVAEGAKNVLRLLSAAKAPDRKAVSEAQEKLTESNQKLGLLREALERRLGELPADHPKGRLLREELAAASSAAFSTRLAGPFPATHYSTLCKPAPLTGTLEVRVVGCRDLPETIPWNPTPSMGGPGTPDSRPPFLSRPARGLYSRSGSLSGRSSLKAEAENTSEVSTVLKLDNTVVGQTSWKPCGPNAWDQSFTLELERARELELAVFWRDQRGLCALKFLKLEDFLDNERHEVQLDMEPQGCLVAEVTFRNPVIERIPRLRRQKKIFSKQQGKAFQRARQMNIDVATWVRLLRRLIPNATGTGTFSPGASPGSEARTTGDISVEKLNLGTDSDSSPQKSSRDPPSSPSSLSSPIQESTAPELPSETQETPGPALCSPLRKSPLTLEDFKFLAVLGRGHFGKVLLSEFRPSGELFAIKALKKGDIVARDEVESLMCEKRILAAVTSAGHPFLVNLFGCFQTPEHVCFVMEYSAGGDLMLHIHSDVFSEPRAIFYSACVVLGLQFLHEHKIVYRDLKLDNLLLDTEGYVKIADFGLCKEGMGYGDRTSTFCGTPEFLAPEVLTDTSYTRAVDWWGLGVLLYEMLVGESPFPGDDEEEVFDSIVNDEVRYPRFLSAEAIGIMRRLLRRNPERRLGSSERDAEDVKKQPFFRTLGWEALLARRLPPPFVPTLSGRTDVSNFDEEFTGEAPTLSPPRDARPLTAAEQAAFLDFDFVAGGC
Chain of LCK (human) (P06239 whole entry, looked up): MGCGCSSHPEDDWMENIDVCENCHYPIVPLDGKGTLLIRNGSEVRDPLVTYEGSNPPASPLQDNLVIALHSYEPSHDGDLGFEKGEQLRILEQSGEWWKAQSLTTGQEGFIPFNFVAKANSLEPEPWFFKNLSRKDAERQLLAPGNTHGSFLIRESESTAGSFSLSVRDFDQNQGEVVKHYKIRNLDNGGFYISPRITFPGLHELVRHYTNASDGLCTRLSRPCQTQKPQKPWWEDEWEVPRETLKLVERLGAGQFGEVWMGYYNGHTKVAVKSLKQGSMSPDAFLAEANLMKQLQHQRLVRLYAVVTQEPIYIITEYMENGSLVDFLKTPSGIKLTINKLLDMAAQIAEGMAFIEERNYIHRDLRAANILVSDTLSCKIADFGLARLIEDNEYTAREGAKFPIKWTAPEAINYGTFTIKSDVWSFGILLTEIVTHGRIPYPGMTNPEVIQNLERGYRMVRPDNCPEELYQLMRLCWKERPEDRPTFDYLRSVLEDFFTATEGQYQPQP
Chain of ABL1 (human) (P00519 whole entry, looked up): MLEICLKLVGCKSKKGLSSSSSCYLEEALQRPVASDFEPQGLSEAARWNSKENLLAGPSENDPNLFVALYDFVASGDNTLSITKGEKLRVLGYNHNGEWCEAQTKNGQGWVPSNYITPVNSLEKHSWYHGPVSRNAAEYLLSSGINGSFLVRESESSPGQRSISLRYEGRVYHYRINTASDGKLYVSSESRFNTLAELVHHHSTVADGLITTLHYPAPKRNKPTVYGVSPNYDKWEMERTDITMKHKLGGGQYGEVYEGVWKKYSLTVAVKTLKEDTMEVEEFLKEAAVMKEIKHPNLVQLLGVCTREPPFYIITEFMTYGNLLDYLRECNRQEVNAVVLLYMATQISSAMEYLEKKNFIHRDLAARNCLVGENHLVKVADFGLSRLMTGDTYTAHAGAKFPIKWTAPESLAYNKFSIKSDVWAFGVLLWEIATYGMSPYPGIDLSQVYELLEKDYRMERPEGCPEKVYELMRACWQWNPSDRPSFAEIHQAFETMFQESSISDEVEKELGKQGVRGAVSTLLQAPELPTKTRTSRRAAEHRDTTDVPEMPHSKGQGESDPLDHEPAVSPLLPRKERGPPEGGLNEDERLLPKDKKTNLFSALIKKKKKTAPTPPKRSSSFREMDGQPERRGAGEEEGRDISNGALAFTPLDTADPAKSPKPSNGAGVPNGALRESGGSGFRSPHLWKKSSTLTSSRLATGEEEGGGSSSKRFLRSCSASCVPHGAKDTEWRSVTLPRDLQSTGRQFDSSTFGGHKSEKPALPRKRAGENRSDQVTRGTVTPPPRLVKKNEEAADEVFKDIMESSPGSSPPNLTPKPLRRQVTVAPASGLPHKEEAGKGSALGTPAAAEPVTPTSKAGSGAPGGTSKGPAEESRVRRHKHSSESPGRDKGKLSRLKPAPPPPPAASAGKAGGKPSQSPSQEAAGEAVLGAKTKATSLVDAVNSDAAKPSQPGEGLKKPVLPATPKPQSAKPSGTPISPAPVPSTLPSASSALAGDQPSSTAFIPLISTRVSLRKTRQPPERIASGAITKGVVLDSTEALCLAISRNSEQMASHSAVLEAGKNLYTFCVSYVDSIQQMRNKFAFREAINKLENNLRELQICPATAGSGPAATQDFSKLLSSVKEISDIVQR

In the case of `CNC(=O)c1ccccc1Sc1ccc2c(/C=C/c3ccccn3)n[nH]c2c1`, the inhibition is -26.9% against PKN1 (human) (compound 0.001 µM) and -21.6% on PKN1 (human) (compound 0.02 µM).
`Cc1ccc(Nc2nccc(N(C)c3ccc4c(C)n(C)nc4c3)n2)cc1S(N)(=O)=O`: the inhibition is 7% at LCK (human) (compound 0.02 µM); 44.1% at LCK (human) (compound 0.2 µM); -1.3% on EGFR (human) (compound 0.2 µM); -20.5% against PKN1 (human) (compound 0.02 µM); -27.6% against PKN1 (human) (compound 0.2 µM).
For `CNC(=O)c1cc(Oc2ccc(NC(=O)Nc3ccc(Cl)c(C(F)(F)F)c3)cc2)ccn1`, the inhibition was -40.2% on PKN1 (human) (compound 0.02 µM) and -39.4% on PKN1 (human) (compound 0.2 µM).
For `COc1cc2c(Oc3ccc4[nH]c(C)cc4c3F)ncnc2cc1OCCCN1CCCC1`, the inhibition on LCK (human) (compound 0.02 µM) came to 23%; on LCK (human) (compound 0.2 µM), 72.7%; at ABL1 (human) (compound 0.02 µM), 24.1%; on ABL1 (human) (compound 0.2 µM), 58.9%; at EGFR (human) (compound 0.02 µM) it was 30.6%; at EGFR (human) (compound 0.2 µM) it was 78.4%. Moreover, the inhibition at PKN1 (human) (compound 0.02 µM) is -35.8%; at PKN1 (human) (compound 0.2 µM) it was -32.5%.
For `CCN(CC)CCNC(=O)c1c(C)[nH]c(/C=C2\C(=O)Nc3ccc(F)cc32)c1C`, the inhibition is -2.2% on PKN1 (human) (compound 0.2 µM) and 57.1% on PKN1 (human) (compound 4.0 µM).
